Data set [1] in a line: Diffusion of Sodium Fluorescein formulation across Cellu-Por synthetic membrane simulating ocular tissue, with or without ultrasound. The data set is classed as in vitro ADME. Particulars: ultrasound applied concurrently during application of the formulation, FIG. 3. The text has this:
The control results 302 display the effect of allowing the formulation to diffuse naturally, while the ultrasound results 304 display the effect of applying ultrasound concurrently during application of the formulation.

Data set [2] can be described thus: Diffusion of Sodium Fluorescein formulation through RCS tissue in a Franz diffusion cell at different ultrasound standoff distances. The format is in vitro ADME, New Zealand albino rabbits. The conditions noted are these: treat far, 1.00±0.01 cm standoff distance, versus 0.50±0.01 cm (treat near) / control without ultrasound, rabbit RCS tissue, FIG. 4. An excerpt:
By using a standoff distance 136, drug transport can be optimized. A standoff distance is desired to optimize the cavitation effects in the Fraunhofer zone of the ultrasonic energy field. […] The control results 402 represent normal diffusion action of the formulation in the absence of ultrasound. The treat near results 404 represent diffusion of the formulation achieved using a 0.50±0.01 cm standoff distance. The treat far results 406 represent diffusion of the formulation achieved using a 1.00±0.01 cm standoff distance. […] The optimum standoff distance can vary depending on a number of factors, such as, for example, the coupling media, the transducer configuration, the targeted tissue, and the pharmaceutical formulation being administered. The optimum standoff distance for transcleral drug delivery differs from drug delivery attempted through the cornea due to the numerous factors discussed above, including inherent tissue differences and transport phenomena occurring in the blood-retina barrier.

With `O=C([O-])c1ccccc1-c1c2ccc(=O)cc-2oc2cc([O-])ccc12.[Na+].[Na+]` [Sodium Fluorescein], the “permeability with ultrasonic waves versus control (natural diffusion)” value in data set [1] is “substantially higher”. Also, in data set [2], the “permeability increase using the greater standoff distance” value is listed as “approximately 30 times higher”.

The record behind these values is patent US20080177220A1, “Ultrasound-Mediated Transcleral Drug Delivery” (THE CURATORS OF THE UNIVERSITY OF MISSOURI, priority 2006, published 2008).
